From article PMC10376326, “Novel Acylselenourea Derivatives: Dual Molecules with Anticancer and Radical Scavenging Activity” (Antioxidants, 2023)

Assays:
[1] = system: MDA-MB-231 (breast) cancer cell line; assay: MTT cell viability assay, MDA-MB-231; type: cell-based, human; conditions: Homo sapiens, MDA-MB-231, 48 h; for activity at 10 µM: read-out: Cell growth %, MDA-MB-231, 10 µM, 48 h, MTT; for activity at 50 µM: read-out: Cell growth %, MDA-MB-231, 50 µM, 48 h, MTT
Protocol: (§1) Cell lines were purchased from the American Type Culture Collection (ATCC). Cell lines MDA-MB-231, HTB-54, DU-145, and BEAS-2B were cultured in RPMI 1640 medium (Gibco, Thermo Fisher Scientific, Gaithersburg, MD, USA) supplemented with 10% fetal bovine serum (FBS; Gibco), 100 units/mL penicillin, and […] streptomycin (Gibco). HT-29 cell line was grown in McCoy’s 5A (Gibco), 10% FBS, 100 units/mL penicillin, and 100 μg/mL streptomycin. Cells were maintained at 37 °C and 5% CO2. The culture medium was changed every three days.
(§2) The cell viability of each compound was measured by MTT colorimetric assay. Each compound was dissolved in DMSO at a concentration of 0.01 M. Each compound was tested at two different concentrations (10 and 50 µM) in MDA-MB-231 (breast), HTB-54 (lung), DU-145 (prostate), and HT-29 (colon) human cancer cell lines. Serial dilutions were prepared with supplemented culture medium. […] IC50 and selectivity indexes (SI) were determined.
(§3) Briefly, 1 × 10^4 tumor cells per well were grown in 96-well plates for 24 h. Then, these cells were incubated for 48 h with either DMSO (control) or a different concentration of each of the tested compounds. The cell viability was determined by adding 20 μL of MTT two hours and a half before the termination point. After this time, the culture medium was removed. The resulting formazan crystals were dissolved in 50 μL of DMSO, and the absorbance was measured at 570 nm. Results are expressed as % cell growth. The data were obtained from at least three independent experiments performed in quadruplicate.

[2] = DPPH radical scavenging assay; type: biochemical; conditions: for DPPH Inhibitory%: acylselenourea analogs
Protocol: Different methods are available to quantify the antioxidant capacity of natural or novel molecules. Notable among these are the ABTS^•+ and DPPH^• methods, which measure the quenching efficiency in vitro for known concentrations of preformed radicals. In this work, the DPPH^• colorimetric assay was carried out. Measurements were recorded on a BioTeck PowerWave XS spectrophotometer (BioTeck Instruments, Winooski, VT, USA) and data were collected using KCJunior v.1.41. software (BioTeck Instruments, Winooski, VT, USA). Compounds with potent activity were selected to further determine their protective effect against ROS-induced cell death caused by H2O2.
DPPH colorimetric assay was performed to determine the in vitro radical scavenging activity of the acylselenourea derivatives. DPPH assay was performed as described by Svinyarov. For each acylselenourea, a stock solution of 1 mg/mL in dimethyl sulfoxide (DMSO) was made, and these solutions were used to prepare the different concentrations employed in the assay. The compounds were tested at two different concentrations (0.003 and 0.03 mg/mL). Intermediate solutions were prepared in methanol and a volume of 100 µL of each was added to each well of the plate. Then, 100 µL of DPPH^• (previously prepared at a concentration of 0.04 mg/mL in methanol and preserved in the dark) was added to the previous methanolic acylselenourea solutions. The discoloration of the purple radical to the yellow reduced form was followed at 517 nm at different time points (0, 5, 15, 30, 60, 90, and 120 min). Ascorbic acid and trolox were used as positive controls. All measurements were carried out in triplicate. Results are expressed as the percentage of the radicals scavenged, calculated using the following formula: (1) % DPPH radical scavenging=Acontrol - Asample/Acontrol × 100 where Acontrol refers to the absorbance of the negative control and Asample refers to the absorbance of the tested compounds. Results are expressed as percentage of DPPH radical scavenging ± SD.

[3] = system: HT-29 (colon) cancer cell line; assay: MTT cell viability assay, HT-29; type: cell-based; conditions: Homo sapiens, HT-29, 48 h, read-out: Cell growth %; for activity at 10 µM: HT-29, 10 µM; for activity at 50 µM: HT-29, 50 µM
Protocol: as §1, §2, §3

[4] = system: HTB-54 (lung) cancer cell line; assay: MTT cell viability assay, HTB-54; type: cell-based, human; conditions: Homo sapiens, HTB-54, 48 h; for activity at 10 µM: read-out: Cell growth %, HTB-54, 10 µM, 48 h, MTT; for activity at 50 µM: read-out: Cell growth %, HTB-54, 50 µM, 48 h, MTT
Protocol: as §1, §2, §3

[5] = system: DU-145 (prostate) cancer cell line; assay: MTT cell viability assay, DU-145; type: cell-based, human; conditions: for activity at 10 µM / activity at 50 µM: Homo sapiens, DU-145, 48 h; for activity at 10 µM: read-out: Cell growth %, DU-145, 10 µM, 48 h, MTT; for activity at 50 µM: read-out: Cell growth %, DU-145, 50 µM, 48 h, MTT
Protocol: as §1, §2, §3

SMILES	activity at 10 µM [1] [%]	activity at 50 µM [1] [%]	inhibition ([2]; 0.003 mg/mL, 0 min) [%]	inhibition ([2]; 0.003 mg/mL, 5 min) [%]	inhibition ([2]; 0.003 mg/mL, 15 min) [%]	inhibition ([2]; 0.003 mg/mL, 30 min) [%]	inhibition ([2]; 0.003 mg/mL, 90 min) [%]	inhibition ([2]; 0.003 mg/mL, 120 min) [%]	inhibition ([2]; 0.03 mg/mL, 0 min) [%]	inhibition ([2]; 0.03 mg/mL, 5 min) [%]	inhibition ([2]; 0.03 mg/mL, 15 min) [%]	inhibition ([2]; 0.03 mg/mL, 30 min) [%]	inhibition ([2]; 0.03 mg/mL, 60 min) [%]	DPPH Inhibitory% ([2]; 0.03 mg/mL, 90 min) [%]	activity at 10 µM [3] [%]	activity at 50 µM [3] [%]	activity at 10 µM [4] [%]	activity at 50 µM [4] [%]	activity at 10 µM [5] [%]	activity at 50 µM [5] [%]	further results
C#CCNC(=[Se])NC(=O)c1ccco1 [Compound 1.III, N-(prop-2-in-1-ylcarbamoselenoyl)furan-2-carboxamide]	66.3 ± 16.7	17.6 ± 9.3	1.5 ± 0.7	3.4 ± 0.6	4.9 ± 0.7	6.5 ± 0.7	9.6 ± 0.9	10 ± 0.8	11.8 ± 1.7	15.2 ± 4.4	23.5 ± 3.9	31.2 ± 3.7	40.9 ± 4.3	42.6 ± 0.6	84 ± 16.8	17.2 ± 4.2	76 ± 4.8	48 ± 4.2	42.4 ± 4.8	15.2 ± 1.2	inhibition ([2]; 0.003 mg/mL, 60 min): 8.5 ± 1%; inhibition ([2]; 0.03 mg/mL, 120 min): 48.1 ± 0.4%
C=CCNC(=[Se])NC(=O)c1cccs1 [Compound 2.II, N-(allylcarbamoselenoyl)thiophene-2-carboxamide]	79.9 ± 9.6	11.1 ± 5.9	0	6.4 ± 1.1	10.4 ± 1.2	13 ± 1.2	16 ± 1.2	16.3 ± 1.2	24.4 ± 3	60.7 ± 2.5	75.8 ± 3.5	87.6 ± 4	96.7 ± 0.7	97.3 ± 0.8	107 ± 16.2	26.2 ± 5.1	35.9 ± 12.1	8.52 ± 4.8	63.4 ± 5.6	7.33 ± 4.6	inhibition ([2]; 0.003 mg/mL, 60 min): 15.2 ± 1.2%; time to reach the highest DPPH inhibition ([2]; 0.03 mg/mL): 60 min
C=CCNC(=[Se])NC(=O)c1ccccc1 [Compound 5.II, N-(allylcarbamoselenoyl)benzamide]	80.4 ± 8.4	15.6 ± 6	1.3 ± 1.7	4.5 ± 1.7	7.5 ± 1.7	10.4 ± 1.8	16.2 ± 2	17.8 ± 2.1	13.5 ± 1.3	42.4 ± 1.5	62.7 ± 0.8	80.2 ± 1.1	97.2 ± 0.7	97.4 ± 0.8	100 ± 16.6	23.9 ± 5	67.6 ± 14.9	16.9 ± 4.1	97.5 ± 18.5	10.3 ± 4.9	inhibition ([2]; 0.003 mg/mL, 60 min): 13.9 ± 1.9%; time to reach the highest DPPH inhibition ([2]; 0.03 mg/mL): 60 min; inhibition ([2]; 0.03 mg/mL, 120 min): 97.7 ± 1%
C#CCNC(=[Se])NC(=O)c1ccccc1 [Compound 5.III, N-(prop-2-in-1-ylcarbamoselenoyl)benzamide]	78.5 ± 12	33.3 ± 6.5	0.6 ± 1.2	2.9 ± 1	5.1 ± 1.3	7.2 ± 1.6	11.3 ± 2	12.3 ± 2.1	9.3 ± 1	9.8 ± 0.3	23 ± 0.3	34 ± 0.6	46.6 ± 0.9	54.6 ± 0.8	70 ± 8.7	33.9 ± 4.5	76 ± 4.8	33.4 ± 8.6	80.8 ± 7.4	26.3 ± 6.5	inhibition ([2]; 0.03 mg/mL, 120 min): 60.2 ± 0.7%
C=CCNC(=[Se])NC(=O)/C=C/c1ccccc1 [Compound 6.II, N-(allylcarbamoselenoyl)cinnamamide]	51.8 ± 6.8	30.5 ± 7.1	0	0	0	0	0.5 ± 2.3	1.1 ± 2.3	0	1 ± 1.7	4.6 ± 1.3	9.8 ± 1.1	18.8 ± 0.9	26.7 ± 0.6	94.7 ± 5.3	56.1 ± 11	68.7 ± 8.2	44.1 ± 10.6	57.3 ± 3.6	14.6 ± 4.5	inhibition ([2]; 0.003 mg/mL, 60 min): 0%; inhibition ([2]; 0.03 mg/mL, 120 min): 34.2 ± 0.7%; cell growth % ([5]; DU-145, 10 µM, 48 h, MTT): 57.30%
C=CCNC(=[Se])NC(=O)c1ccc2c(c1)OCO2 [Compound 8.II, N-(allylcarbamoselenoyl)benzo[d][1,3]dioxole-5-carboxamide]	80.7 ± 6.4	15.5 ± 7.6	1.2 ± 1.4	2.8 ± 1.3	5 ± 1.2	7.1 ± 1.1	10.9 ± 1.2	11.7 ± 1.2	17.6 ± 4.6	39 ± 3	55.5 ± 2.1	68 ± 1.7	81.4 ± 1.3	88.2 ± 1.3	83.5 ± 16.4	26.6 ± 3.8	51.9 ± 15	20 ± 6.6	88.6 ± 10.1	10.3 ± 4.2	inhibition ([2]; 0.003 mg/mL, 60 min): 9.7 ± 1.1%; inhibition ([2]; 0.03 mg/mL, 120 min): 93.7 ± 1.4%
